Experimental data: ChEMBL document CHEMBL6083220, “Chemically induced degradation of PRC2 complex by EZH2-Targeted PROTACs via a Ubiquitin-Proteasome pathway” (Bioorg Med Chem Lett, 2024)
Activity calls are given as the source filed them. The calls are words filed in the database; no cut-off is given here.

What was measured:
[1] = Antiproliferative activity against human MINO cells by MTT assay; type: functional, cell-based
OCI-Ly7 = assay: Antiproliferative activity against human OCILY7 cells by MTT assay; type: functional, cell-based
[2] = Half-life in ICR mouse at 2 mg/kg, iv; type: ADME, organism-based; conditions: in vivo
[3] = Tmax in ICR mouse at 2 mg/kg, iv; type: ADME, organism-based; conditions: in vivo
[4] = Cmax in ICR mouse at 2 mg/kg, iv; type: ADME, organism-based; conditions: in vivo
[5] = AUC(0 to t) in ICR mouse at 2 mg/kg, iv; type: ADME, organism-based; conditions: in vivo
[6] = AUC(0 to infinity) in ICR mouse at 2 mg/kg, iv; type: ADME, organism-based; conditions: in vivo
[7] = MRT(0 to t) in ICR mouse at 2 mg/kg, iv; type: ADME, organism-based; conditions: in vivo
[8] = MRT(0 to infinity) in ICR mouse at 2 mg/kg, iv; type: ADME, organism-based; conditions: in vivo
[9] = Initial plasma concentration in ICR mouse at 2 mg/kg, iv; type: ADME, organism-based
[10] = Volume of distribution at steady state in ICR mouse at 2 mg/kg, iv; type: ADME, organism-based; conditions: in vivo, read-out: Vdss
[11] = Apparent volume of distribution in ICR mouse at 2 mg/kg, iv; type: ADME, organism-based; conditions: in vivo, read-out: Vz
[12] = Clearance in ICR mouse at 2 mg/kg, iv; type: ADME, organism-based; conditions: in vivo
[13] = Bioavailability in ICR mouse at 2 mg/kg, iv; type: ADME, organism-based; conditions: in vivo
[14] = Half-life in ICR mouse at 10 mg/kg, po; type: ADME, organism-based; conditions: in vivo
[15] = Tmax in ICR mouse at 10 mg/kg, po; type: ADME, organism-based; conditions: in vivo
[16] = Cmax in ICR mouse at 10 mg/kg, po; type: ADME, organism-based; conditions: in vivo
[17] = AUC(0 to t) in ICR mouse at 10 mg/kg, po; type: ADME, organism-based; conditions: in vivo
[18] = AUC(0 to infinity) in ICR mouse at 10 mg/kg, po; type: ADME, organism-based; conditions: in vivo
[19] = MRT(0 to t) in ICR mouse at 10 mg/kg, po; type: ADME, organism-based; conditions: in vivo
[20] = MRT(0 to infinity) in ICR mouse at 10 mg/kg, po; type: ADME, organism-based; conditions: in vivo
MINO [21] = assay: Downregulation of EZH2 protein expression in human MINO cells at 5 uM incubated for 24 hrs by Western blotting assay; type: functional, cell-based
MINO [22] = assay: Downregulation of SUZ12 protein expression in human MINO cells at 5 uM incubated for 24 hrs by Western blotting assay; type: functional, cell-based
MINO [23] = assay: Downregulation of EED protein expression in human MINO cells at 5 uM incubated for 24 hrs by Western blotting assay; type: functional, cell-based
MINO [24] = assay: Downregulation of RbAp48 protein expression in human MINO cells at 5 uM incubated for 24 hrs by Western blotting assay; type: functional, cell-based
MINO [25] = assay: Downregulation of H3k27me3 protein expression in human MINO cells at 5 uM incubated for 24 hrs by Western blotting assay; type: functional, cell-based
[26] = target: Histone-lysine N-methyltransferase EZH2 (Homo sapiens) (UniProt Q15910); assay: Binding affinity to EZH2 in human MINO cells assessed as increase in thermal stability at 5 uM at 5 to 10 degreeC incubated for 24 hrs by CETSA; type: cell-based
[27] = target: Polycomb protein EED (Homo sapiens) (UniProt O75530); assay: Binding affinity to EED in human MINO cells assessed as increase in thermal stability at 5 uM at 5 to 10 degreeC incubated for 24 hrs by CETSA; type: cell-based
[28] = target: Polycomb protein SUZ12 (Homo sapiens) (UniProt Q15022); assay: Binding affinity to SUZ12 in human MINO cells assessed as increase in thermal stability at 5 uM at 5 to 10 degreeC incubated for 24 hrs by CETSA; type: cell-based
MINO [29] = assay: Binding affinity to RbAp48 in human MINO cells assessed as increase in thermal stability at 5 uM at 5 to 10 degreeC incubated for 24 hrs by CETSA; type: cell-based
MINO [30] = assay: PROTAC activity at EZH2/E3 ligase in human MINO cells assessed as reduction in EZH2 protein level incubated for 24 hrs by Western blotting assay; type: cell-based; conditions: dose 0.02-20 µM
MINO [31] = assay: PROTAC activity at EZH2/E3 ligase in human MINO cells assessed as reduction in EZH2 protein level at 1 to 2.5 uM incubated for 24 hrs by Western blotting assay; type: cell-based; conditions: dose 1-2.5 µM
MINO [32] = assay: PROTAC activity at EZH2/E3 ligase in human MINO cells assessed as reduction in EZH2 protein level at 5 uM incubated for 24 hrs by Western blotting assay; type: cell-based; design: scale not given: the % may be the effect or the level left
[33] = Induction of cell cycle arrest in human MINO cells assessed as G0/G1 phase cells at 5 uM incubated for 24 hrs by propidium iodide staining based flow cytometry assay (reference value: 67.56%); type: functional
[34] = Induction of cell cycle arrest in human MINO cells assessed as G2/M phase cells at 5 uM incubated for 24 hrs by propidium iodide staining based flow cytometry assay (reference value: 7.26%); type: functional
[35] = Induction of cell cycle arrest in human MINO cells assessed as S phase cells at 5 uM incubated for 24 hrs by propidium iodide staining based flow cytometry assay (reference value: 25.19%); type: functional
[36] = Induction of apoptosis in human MINO cells assessed as viable cells at 5 uM incubated for 24 hrs by Annexin V-FITC/PI staining based flow cytometry assay (reference value: 89.93%); type: functional; conditions: read-out: Activity
[37] = Induction of apoptosis in human MINO cells assessed as early apoptotic cells at 5 uM incubated for 24 hrs by Annexin V-FITC/PI staining based flow cytometry assay (reference value: 1.04%); type: functional
[38] = Induction of apoptosis in human MINO cells assessed as late apoptotic cells at 5 uM incubated for 24 hrs by Annexin V-FITC/PI staining based flow cytometry assay (reference value: 8.29%); type: functional
[39] = Induction of apoptosis in human MINO cells assessed as necrotic cells at 5 uM incubated for 24 hrs by Annexin V-FITC/PI staining based flow cytometry assay (reference value: 0.74%); type: functional
MINO [40] = assay: Induction of mitochondrial apoptosis pathway in human MINO cells assessed as upregulation of cytochrome C expression at 5 uM incubated for 24 hrs by Western blotting assay; type: functional, cell-based
MINO [41] = assay: Induction of mitochondrial apoptosis pathway in human MINO cells assessed as upregulation of bax protein expression at 5 uM incubated for 24 hrs by Western blotting assay; type: functional, cell-based
MINO [42] = assay: Induction of mitochondrial apoptosis pathway in human MINO cells assessed as upregulation of cleaved PARP expression at 5 uM incubated for 24 hrs by Western blotting assay; type: functional, cell-based
MINO [43] = assay: Induction of mitochondrial apoptosis pathway in human MINO cells assessed as downregulation of bcl-2 expression at 5 uM incubated for 24 hrs by Western blotting assay; type: functional, cell-based
MINO [44] = assay: Induction of mitochondrial apoptosis pathway in human MINO cells assessed as downregulation of procaspase-3 expression at 5 uM incubated for 24 hrs by Western blotting assay; type: functional, cell-based
MINO [45] = assay: Induction of mitochondrial apoptosis pathway in human MINO cells assessed as downregulation of procaspase-9 expression at 5 uM incubated for 24 hrs by Western blotting assay; type: functional, cell-based
[46] = Potency index, ratio of tazemetostat IC50 to test compound IC50 for antiproliferative activity against human MINO cells; type: functional

Histone-lysine N-methyltransferase EZH2 (Homo sapiens), sequence (Q15910 whole entry, looked up): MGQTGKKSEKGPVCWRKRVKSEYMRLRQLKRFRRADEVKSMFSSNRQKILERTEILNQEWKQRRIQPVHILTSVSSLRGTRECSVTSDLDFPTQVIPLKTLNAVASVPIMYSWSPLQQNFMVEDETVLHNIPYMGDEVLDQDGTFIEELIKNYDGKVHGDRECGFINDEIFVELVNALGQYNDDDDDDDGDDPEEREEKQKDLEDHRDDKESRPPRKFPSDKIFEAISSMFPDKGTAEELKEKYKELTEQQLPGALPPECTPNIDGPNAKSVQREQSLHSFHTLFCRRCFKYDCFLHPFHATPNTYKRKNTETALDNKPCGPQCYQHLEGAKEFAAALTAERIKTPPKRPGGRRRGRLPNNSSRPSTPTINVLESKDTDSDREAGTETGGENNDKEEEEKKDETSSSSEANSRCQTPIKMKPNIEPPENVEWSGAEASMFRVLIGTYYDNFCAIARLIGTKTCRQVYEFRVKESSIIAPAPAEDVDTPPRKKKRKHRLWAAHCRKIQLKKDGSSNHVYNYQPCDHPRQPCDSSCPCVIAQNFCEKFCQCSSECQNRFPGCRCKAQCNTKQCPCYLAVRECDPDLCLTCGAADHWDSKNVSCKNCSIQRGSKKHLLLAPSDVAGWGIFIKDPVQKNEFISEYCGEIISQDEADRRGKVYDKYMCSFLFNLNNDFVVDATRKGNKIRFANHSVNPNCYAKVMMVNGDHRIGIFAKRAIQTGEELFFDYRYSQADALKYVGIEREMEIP
Polycomb protein EED (Homo sapiens), sequence (O75530 2-441 limits assumed): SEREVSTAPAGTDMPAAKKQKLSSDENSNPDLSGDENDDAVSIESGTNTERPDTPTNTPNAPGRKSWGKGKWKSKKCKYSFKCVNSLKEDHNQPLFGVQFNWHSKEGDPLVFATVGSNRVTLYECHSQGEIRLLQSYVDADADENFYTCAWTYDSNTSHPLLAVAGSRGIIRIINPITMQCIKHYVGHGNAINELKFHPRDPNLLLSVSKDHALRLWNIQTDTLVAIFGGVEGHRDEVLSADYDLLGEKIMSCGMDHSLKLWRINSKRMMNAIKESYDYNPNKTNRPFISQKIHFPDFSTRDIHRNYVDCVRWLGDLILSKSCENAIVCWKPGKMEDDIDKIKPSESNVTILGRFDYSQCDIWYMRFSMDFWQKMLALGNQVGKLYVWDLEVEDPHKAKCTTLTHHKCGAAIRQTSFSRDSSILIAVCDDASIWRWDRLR
Polycomb protein SUZ12 (Homo sapiens), sequence (Q15022 whole entry): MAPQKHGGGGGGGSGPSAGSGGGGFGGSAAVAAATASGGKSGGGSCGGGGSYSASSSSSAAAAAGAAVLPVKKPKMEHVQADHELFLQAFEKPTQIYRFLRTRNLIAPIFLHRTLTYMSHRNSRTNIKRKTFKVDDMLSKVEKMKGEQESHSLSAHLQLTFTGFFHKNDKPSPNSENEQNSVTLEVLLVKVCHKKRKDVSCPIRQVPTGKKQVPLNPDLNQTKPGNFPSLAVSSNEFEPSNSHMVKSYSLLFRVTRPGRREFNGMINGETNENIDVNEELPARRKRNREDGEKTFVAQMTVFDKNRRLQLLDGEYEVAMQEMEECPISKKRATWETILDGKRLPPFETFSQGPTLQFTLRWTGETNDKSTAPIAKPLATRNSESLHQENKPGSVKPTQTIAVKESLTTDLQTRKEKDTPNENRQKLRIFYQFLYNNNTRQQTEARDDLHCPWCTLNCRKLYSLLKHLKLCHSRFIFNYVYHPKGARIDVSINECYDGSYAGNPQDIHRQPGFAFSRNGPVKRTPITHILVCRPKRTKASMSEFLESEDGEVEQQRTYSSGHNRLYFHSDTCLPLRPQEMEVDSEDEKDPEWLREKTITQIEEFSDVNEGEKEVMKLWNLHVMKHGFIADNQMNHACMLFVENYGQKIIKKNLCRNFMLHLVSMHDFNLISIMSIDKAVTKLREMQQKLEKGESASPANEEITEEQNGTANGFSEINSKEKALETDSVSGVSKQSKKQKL

IC50 (OCI-Ly7): 150 nM
half-life [2]: 21.9 h
Tmax [3]: 0.42 h
Cmax [4]: 7210 ng/mL
AUC(0-t) [5]: 98400 ng·h/mL
AUC(0-inf) [6]: 190000 ng·h/mL
MRT last [7]: 9.7 h
MRT inf [8]: 31.4 h
C0 [9]: 6500 ng/mL
Vd [10]: 0.323 L/kg
Vd [11]: 0.329 L/kg
clearance [12]: 0.191 mL/min/kg
bioavailability [13]: 6.05%
half-life [14]: 11.7 h
Tmax [15]: 0.83 h
Cmax [16]: 2980 ng/mL
AUC(0-t) [17]: 29700 ng·h/mL
AUC(0-inf) [18]: 40500 ng·h/mL
MRT last [19]: 8.87 h
MRT inf [20]: 17.6 h
Activity [26]: Active
Activity [27]: inactive
Activity [28]: inactive
Structure (SMILES): CCN(c1cc(-c2ccc(CN3CCN(C(=O)CC4CCC(CNc5cccc6c5C(=O)N(C5CCC(=O)NC5=O)C6=O)CC4)CC3)cc2)cc(C(=O)NCc2c(C)cc(C)[nH]c2=O)c1C)C1CCOCC1 (configuration not stated)
IC50 [1]: 5 nM
Activity (MINO [21]): Active
Activity (MINO [22]): Active
Activity (MINO [23]): Active
Activity (MINO [24]): Active
Activity (MINO [25]): Active
Activity (MINO [29]): inactive
Activity (MINO [30]): Dose-dependent-effect
Activity (MINO [31]): Active; Significant And Potent Activity Observed
Activity (MINO [32]): 100%
Activity [33]: 79.47%
Activity [34]: 6.11%
Activity [35]: 14.41%
viability at 5 µM [36]: 35.6%
Activity [37]: 4.89%
Activity [38]: 57.55%
Activity [39]: 2%
Activity (MINO [40]): Active
Activity (MINO [41]): Active
Activity (MINO [42]): Active
Activity (MINO [43]): Active
Activity (MINO [44]): Active
Activity (MINO [45]): Active
Ratio IC50 [46]: 214
